Laboratory results from US11014902B2, “MYC G-quadruplex stabilizing small molecules and their use” (The United States of America, as represented by the …, priority 2015, dated 2021).

What was measured:
[1] = system: MYC expression in L363 cells; test: Gene expression analysis (Nanostring, qPCR), MYC; assay type: cell-based, human; conditions: for c-Myc expression (qPCR): L363 cells
Method: Gene expression analysis was performed on a panel of 770 cancer-associated genes in a multiplexed (nanostring) transcriptional assay. In addition to c-MYC itself, several c-Myc target genes were included in the panel, as were a number of other quadruplex-driven genes. […] Additionally, a third data set was collected comparing Compound 1 treatment to JQ-1 (a BET-bromodomain inhibitor) and quarfloxin (another quadruplex-binding small molecule).
The effects of Compound 1 on a number of known quadruplex-driven genes in the panel were examined further (FIG. 6). Expression levels of MYC, RB1, VEGFA, KRAS, and HIF1α, all of which are reported to be under the control of promoter G4s, and are expressed in L363 cells, were included in the panel of genes evaluated by Nanostring as discussed above. […] These changes in gene expression are in line with biophysical measurements of compound affinity. Corresponding data showing similar results is presented for Compounds 1 and 23 in FIGS. 14A and 14B. […] These observations further highlight the ability of Compound 1 and Compound 23 to specifically target the expression of c-Myc and related pathways.
The phenotype for c-MYC genetic knockdown in multiple myeloma was achieved through lentiviral transduction of shRNA for c-MYC, derived from the spinoculation of 293T cells and plasmids grown in STBL3 E. coli, and isolated with the Qiagen Plasmid Midi Kit. Aliquots of the plasmids were generously provided by Art Shaffer. RNA of treated myeloma cells at designated time points was isolated with the Qiagen RNeasy kit, and used with the nCounter Human Cancer Reference Kit (NanoString Technologies), surveying changes in expression for […] cancer-related human genes and 6 reference genes. Quantitative changes in expression were analyzed and grouped in the form of a heat map using the programming language, R. All other quantitative statistical packing was performed in GraphPad Prism.

A549/ATCC = test: NCI-60 cell growth (SRB); assay type: cell-based; conditions: Non-Small Cell Lung Cancer, 10 μM, 48 hours
Method: (§1) This example illustrates that Compounds 1 and 23 can be used in inhibit the growth of c-Myc expressing cancer cell lines in vitro. The NCI-60 panel of cancer cell lines (see Shoemaker, Nat. Rev. Cancer, 6, 813-823, 2006, and dtp.cancer.gov/discovery_development/nci-60/) was assayed for cell growth in the presence of 10 μM Compound 1 or Compound 23 for 48 hours. At 48 hours, the assay was terminated by fixation with TCA and determination of relative cell counts by addition of Sulforhodamine B (SRB, see Alley et al., Cancer Research, 48: 589-601, 1988.). Growth percent was determined by comparison of SRB reading of a duplicate plate of cells taken at the time of compound addition to the SRB reading at the termination of the treatment. The following table provides a summary of the percent of growth of each cell line in the panel compared to control (no treatment), as well as the mean delta and range of percent growth compared to control across the panel of cell lines for each treatment condition.

ACHN = test: NCI-60 cell growth (SRB); assay type: cell-based; conditions: Renal Cancer, 10 μM, 48 hours
Method: as §1

CCRF-CEM = test: NCI-60 cell growth (SRB); assay type: cell-based; conditions: Leukemia, 10 μM, 48 hours
Method: as §1

EKVX = test: NCI-60 cell growth (SRB); assay type: cell-based; conditions: Non-Small Cell Lung Cancer, 10 μM, 48 hours
Method: as §1

HCC-2998 = test: NCI-60 cell growth (SRB); assay type: cell-based; conditions: HCC-2998, Colon Cancer; 10 μM, 48 hours
Method: as §1

HCT-116 = test: NCI-60 cell growth (SRB); assay type: cell-based; conditions: HCT-116, Colon Cancer; 10 μM, 48 hours
Method: as §1

HOP-92 = test: NCI-60 cell growth (SRB); assay type: cell-based; conditions: HOP-92, Non-Small Cell Lung Cancer; 10 μM, 48 hours
Method: as §1

HS 578T = test: NCI-60 cell growth (SRB); assay type: cell-based; conditions: Breast Cancer, 10 μM, 48 hours
Method: as §1

IGROV1 = test: NCI-60 cell growth (SRB); assay type: cell-based; conditions: IGROV1, Ovarian Cancer; 10 μM, 48 hours
Method: as §1

KM12 = test: NCI-60 cell growth (SRB); assay type: cell-based; conditions: KM12, Colon Cancer; 10 μM, 48 hours
Method: as §1

MALME-3M = test: NCI-60 cell growth (SRB); assay type: cell-based; conditions: Melanoma, 10 μM, 48 hours
Method: as §1

MDA-MB-231/ATCC = test: NCI-60 cell growth (SRB); assay type: cell-based; conditions: Breast Cancer, 10 μM, 48 hours
Method: as §1

MDA-MB-435 = test: NCI-60 cell growth (SRB); assay type: cell-based; conditions: MDA-MB-435, Melanoma; 10 μM, 48 hours
Method: as §1

NCI-H226 = test: NCI-60 cell growth (SRB); assay type: cell-based; conditions: NCI-H226, Non-Small Cell Lung Cancer; 10 μM, 48 hours
Method: as §1

NCI-H23 = test: NCI-60 cell growth (SRB); assay type: cell-based; conditions: NCI-H23, Non-Small Cell Lung Cancer; 10 μM, 48 hours
Method: as §1

NCI-H460 = test: NCI-60 cell growth (SRB); assay type: cell-based; conditions: NCI-H460, Non-Small Cell Lung Cancer; 10 μM, 48 hours
Method: as §1

OVCAR-5 = test: NCI-60 cell growth (SRB); assay type: cell-based; conditions: OVCAR-5, Ovarian Cancer; 10 μM, 48 hours
Method: as §1

SF-539 = test: NCI-60 cell growth (SRB); assay type: cell-based; conditions: SF-539, CNS Cancer; 10 μM, 48 hours
Method: as §1

SK-MEL-5 = test: NCI-60 cell growth (SRB); assay type: cell-based; conditions: SK-MEL-5, Melanoma; 10 μM, 48 hours
Method: as §1

SK-OV-3 = test: NCI-60 cell growth (SRB); assay type: cell-based; conditions: SK-OV-3, Ovarian Cancer; 10 μM, 48 hours
Method: as §1

SNB-19 = test: NCI-60 cell growth (SRB); assay type: cell-based; conditions: SNB-19, CNS Cancer; 10 μM, 48 hours
Method: as §1

SNB-75 = test: NCI-60 cell growth (SRB); assay type: cell-based; conditions: SNB-75, CNS Cancer; 10 μM, 48 hours
Method: as §1

U251 = test: NCI-60 cell growth (SRB); assay type: cell-based; conditions: U251, CNS Cancer; 10 μM, 48 hours
Method: as §1

UO-31 = test: NCI-60 cell growth (SRB); assay type: cell-based; conditions: UO-31, Renal Cancer; 10 μM, 48 hours
Method: as §1

[2] = 48 hours, 10 μM BRACO-19, 10 μM Compound 1, 7.5 μM Compound 23

Structure (SMILES) | c-Myc expression (qPCR) [1, 2] | Growth Percent (A549/ATCC) | Growth Percent (ACHN) | Growth Percent (CCRF-CEM) | Growth Percent (EKVX) | Growth Percent (HCC-2998) | Growth Percent (HCT-116) | Growth Percent (HOP-92) | Growth Percent (HS 578T) | Growth Percent (IGROV1) | Growth Percent (KM12) | Growth Percent (MALME-3M) | Growth Percent (MDA-MB-231/ATCC) | Growth Percent (MDA-MB-435) | Growth Percent (NCI-H226) | Growth Percent (NCI-H23) | Growth Percent (NCI-H460) | Growth Percent (OVCAR-5) | Growth Percent (SF-539) | Growth Percent (SK-MEL-5) | also measured
Cc1ccc(NC(=O)c2c(C)oc3ccc(O)c(CN4CCCCCC4)c23)cc1 [Compound 1] | reduced c-Myc expression | 85.87% | 93.94% | 87.67% | 83.79% | 116.36% | 64.67% | 55.89% | 88.40% | 81.22% | 102.59% | 107.60% | 79.39% | 95.94% | 85.66% | 90.23% | 80.25% | 95.63% | 93.10% | 86.08% | MYC expression (nanostring) ([1]; 10 μM, 2 h to 48 h): substantially reduced; MYC expression (qPCR) ([1]; 5, 10 or 12.5 μM, 48 hours): greatly reduced; Growth Percent (SK-OV-3): 100.26%; Growth Percent (SNB-19): 84.35%; Growth Percent (SNB-75): 78.34%; Growth Percent (U251): 88.66%; Growth Percent (UO-31): 62.74%
Cc1oc2ccc(O)c(CN3CCCCCC3)c2c1C(=O)Nc1ccc(C(F)(F)F)cc1 [Compound 23] | reduced c-Myc expression | 61.22% | 68.48% | 65.23% | 64.06% | 11.22% | 32.68% | 34.88% | 65.50% | 54.25% | 65.50% | 49.92% | 48.96% | 58.22% | 72.45% | 69.93% | 51.53% | 85.79% | 61.23% | 69.97% | c-Myc expression (qPCR) ([1]; 5 μM, 24 or 48 hours): reduced c-Myc expression; Growth Percent (SK-OV-3): 76.35%; Growth Percent (SNB-19): 69.94%; Growth Percent (SNB-75): 50.57%; Growth Percent (U251): 55.07%; Growth Percent (UO-31): 40.69%
